Data on 14 molecules can be found in patent US20230127559A1, “PEPTIDE ANALOGS AND USE OF SAME IN TREATING DISEASES, DISORDERS OR CONDITIONS ASSOCIATED WITH MUTANT P53 PROTEIN” (YEDA RESEARCH AND DEVELOPMENT CO. LTD., priority 2020, published 2023).

pIC50: −log10 of the molar value. Where two headings read alike, the source gives them in different places. Where a SMILES comes first, the peptide text is derived from it. Bridges are numbered along the chain shown (N, C = ends). [ ]: non-standard residue; d: D form. The star is where a group is joined. Docosanoyl = CCCCCCCCCCCCCCCCCCCCCC(=O)*; Oic = O=C(O)[C@@H]1C[C@@H]2CCCC[C@@H]2N1; Arachidoyl = CCCCCCCCCCCCCCCCCCCC(=O)*; Stearoyl = CCCCCCCCCCCCCCCCCC(=O)*; Palmitoyl = CCCCCCCCCCCCCCCC(=O)*; Tic = O=C(O)[C@@H]1Cc2ccccc2CN1; dTic = O=C(O)[C@H]1Cc2ccccc2CN1; Dab = NCC[C@H](N)C(=O)O

The test system of assay [1] is MIA PaCa-2 (pancreatic carcinoma) cells, p53R248W. Type of assay: cell-based. Conditions: 48 h. As to the method:
(§1) Cells were cultured in 96 wells plates with 2500-4000 cells/well. Serial dilutions of different peptides were added and the plates incubated for additional 48 h at 37° C. Then medium was removed and cell viability was determined by staining the cells with crystal violet (0.05%) in methanol/PBS (1:5, v/v), for 10 min, followed by 3 washes with PBS. 10% acetic acid was added to each well for 10 min. OD was determined at 595 nm.
(§2) The IC50 tables presented in FIGS. 17-20 are from several representative experiments performed on cell lines expressing several p53 hotspot mutations, as well as control non-transformed cells: […]

The test system of assay [2] is WI38 (non-transformed fibroblasts) cells, wtp53. Type of assay: cell-based. The conditions noted are these: 48 h. As to the method:
as §1, §2

In assay [3] the test system is PC9 (lung carcinoma) cells, p53R248Q. Type of assay: cell-based. The conditions noted are these: 48 h. The procedure: as §1, §2
In assay [4] the test system is SW-480 (colon carcinoma) cells, p53R273H, P309S. Type of assay: cell-based. The conditions noted are these: 48 h. As to the method:
as §1, §2

For assay [5], the system named is RXF-393 (renal carcinoma) cells, p53R175H. Type of assay: cell-based, human. Conditions: for increase in efficacy relative to pCAP-553: FIG. 17, effect of fatty acid length; for pIC50: 48 h. As to the method:
as §1
(§3) The IC50 tables presented in FIGS. 17-20 are from several representative experiments performed on cell lines expressing several p53 hotspot mutations, as well as control non-transformed cells:
Fatty acid position. Lead peptides were modified with N-terminal myristic acid to enable the penetration of peptides across the cell membrane. Although myristic acid is usually the default choice for cell permeability, additional options were explored of longer fatty acids and to examine the effect on peptide efficacy in terms of cancer cell killing. A standard crystal violet viability test was performed on human renal carcinoma RXF-393 cells, comparing the original pCAP-553, which has myristic acid (C14), with 4 derivative peptides modified with longer fatty acid chains: palmitic (C16), stearic (C18), […] (C20) and behenic (C22).

In assay [6] the test system is panel of cell lines expressing mutp53. Type of assay: cell-based. As to the method: as §1, §3
Proline residue position—Based on alanine scanning and molecular dynamics analyses, it is believed that the proline residue at the 6th position from the N-terminal is critical for the peptide's 3D structure and provides some rigidity required for peptide binding and activity. Therefore, it was hypothesized that a change in orientation or tetrahedral angle might increase the affinity of the peptide for p53. Six new peptides were synthesized replacing this proline residue with proline analogs (pCAPs 708-712, and pCAP-716, SEQ ID NOS: 6-10 and 14, respectively). This set of peptides was tested for activity on a panel of cell lines expressing mutp53, and compared it to pCAP-674 (SEQ ID NO: 27) and to the scrambled sequence peptides pCAP-721 (SEQ ID NO: 19) and pCAP-722 (SEQ ID NO: 20).

Assay [7] concerns PANC1 (pancreatic carcinoma) cells, p53R273H. Type of assay: cell-based. Conditions: 48 h. As to the method:
as §1, §2

For `CCCCCCCCCCCCCC(=O)N[C@@H](CCCNC(=N)N)C(=O)N[C@@H](CCCNC(=N)N)C(=O)N[C@@H](Cc1c[nH]cn1)C(=O)N[C@@H](CO)C(=O)N[C@H](C(=O)N1CCC[C@H]1C(=O)N[C@@H](Cc1c[nH]cn1)C(=O)N1CCC[C@H]1C(=O)N[C@@H](CC(=O)O)C(=O)O)[C@@H](C)O` [pCAP-250, myr-RRHSTPHPD], the values for the pIC50 in assay [1] and in assay [2] were 6.00 and < 4.40, respectively.
As for `CCCCCCCCCCCCCCCCCC(=O)N[C@@H](CCCNC(=N)N)C(=O)N[C@@H](CCCNC(=N)N)C(=O)N[C@@H](Cc1c[nH]cn1)C(=O)N[C@@H](CO)C(=O)N[C@@H](C(=O)N1CCC[C@H]1C(=O)N[C@@H](CCN)C(=O)N1CCC[C@H]1C(=O)N[C@@H](CC(=O)O)C(N)=O)C(C)C` [pCAP-674, str-RRHSvP(Dab)PD-NH2] (Stearoyl-RRHS[dV]P[Dab]PD-NH2), the values for the pIC50 in assay [3], in assay [2] and in assay [4] were 6.68, 4.44 and 6.22, respectively. The “increase in efficacy relative to pCAP-553” value in assay [5] is given as “four-fold increase in efficacy”.
Regarding `CCCCCCCCCCCCCCCCCCCC(=O)N[C@@H](CCCNC(=N)N)C(=O)N[C@@H](CCCNC(=N)N)C(=O)N[C@@H](Cc1c[nH]cn1)C(=O)N[C@@H](CO)C(=O)N[C@@H](C(=O)N1CCC[C@H]1C(=O)N[C@@H](CCN)C(=O)N1CCC[C@H]1C(=O)N[C@@H](CC(=O)O)C(N)=O)C(C)C` [pCAP-706, arc-RRHSvP(Dab)PD-NH2] (Arachidoyl-RRHS[dV]P[Dab]PD-NH2), the pIC50 (usually −log10 of the IC50, conventionally taken in molar units) in assay [3] was 6.59; in assay [2] it was 4.82; in assay [4], 6.10; in assay [5] it was 6.40.
Taken in the same sequence, the figures for `CCCCCCCCCCCCCCCCCCCCCC(=O)N[C@@H](CCCNC(=N)N)C(=O)N[C@@H](CCCNC(=N)N)C(=O)N[C@@H](Cc1c[nH]cn1)C(=O)N[C@@H](CO)C(=O)N[C@@H](C(=O)N1CCC[C@H]1C(=O)N[C@@H](CCN)C(=O)N1CCC[C@H]1C(=O)N[C@@H](CC(=O)O)C(N)=O)C(C)C` [pCAP-707, Beh-RRHSvP(Dab)PD-NH2] (Docosanoyl-RRHS[dV]P[Dab]PD-NH2) were 5.82, 4.92, 5.52 and 5.82.
Take `CCCCCCCCCCCCCCCCCC(=O)N[C@@H](CCCNC(=N)N)C(=O)N[C@@H](CCCNC(=N)N)C(=O)N[C@@H](Cc1c[nH]cn1)C(=O)N[C@@H](CO)C(=O)N[C@@H](C(=O)N1CCC[C@@H]1C(=O)N[C@@H](CCN)C(=O)N1CCC[C@H]1C(=O)N[C@@H](CC(=O)O)C(N)=O)C(C)C` [pCAP-708, str-RRHSvp(Dab)PD-NH2] (Stearoyl-RRHS[dV][dP][Dab]PD-NH2): the pIC50 is 6.30 in assay [1], 4.49 in assay [2] and 5.89 to 6.92 in assay [6] (48 h). The “activity in viability assays compared with other peptides (in words)” value is reported as “consistently modestly improved activity over pCAP-674” in assay [6] and “highest activity” in assay [6] (listed as 708).
On to `CCCCCCCCCCCCCCCCCC(=O)N[C@@H](CCCNC(=N)N)C(=O)N[C@@H](CCCNC(=N)N)C(=O)N[C@@H](Cc1c[nH]cn1)C(=O)N[C@@H](CO)C(=O)N[C@@H](C(=O)N1[C@H](C(=O)N[C@@H](CCN)C(=O)N2CCC[C@H]2C(=O)N[C@@H](CC(=O)O)C(N)=O)C[C@@H]2CCCC[C@@H]21)C(C)C` [pCAP-711, str-RRHSv(Oic)(Dab)PD] (Stearoyl-RRHS[dV][Oic][Dab]PD-NH2; N-terminus and C-terminus assumed), for which the pIC50 in assay [3] is 5.80; in assay [2] it was < 4.40; in assay [4], 5.52; in assay [5] it was 5.59.
Regarding `CCCCCCCCCCCCCCCCCC(=O)N[C@@H](CCCNC(=N)N)C(=O)N[C@@H](CCCNC(=N)N)C(=O)N[C@@H](Cc1c[nH]cn1)C(=O)N[C@@H](CO)C(=O)N[C@@H](C(=O)N1Cc2ccccc2C[C@H]1C(=O)N[C@@H](CCN)C(=O)N1CCC[C@H]1C(=O)N[C@@H](CC(=O)O)C(N)=O)C(C)C` [pCAP-712, str-RRHSv(Tic)(Dab)PD-NH2] (Stearoyl-RRHS[dV][Tic][Dab]PD-NH2), the pIC50 was 6.00 in assay [1], 5.92 in assay [3], 5.82 in assay [4] and 6.22 in assay [5]. The “activity in viability assays compared with other peptides (in words)” value in assay [6] is on record as “highest activity”.
As to `CCCCCCCCCCCCCCCCCC(=O)N[C@@H](CCCNC(=N)N)C(=O)N[C@@H](CCCNC(=N)N)C(=O)N[C@H]1CCCCNC(=O)[C@H](CC(=O)O)NC(=O)[C@@H]2CCCN2C(=O)[C@H](CCN)NC(=O)[C@@H]2CCCN2C(=O)[C@@H](C(C)C)NC(=O)[C@H](CO)NC1=O` [pCAP-714, str-RRKSvP(Dab)PD-Cyc] (Stearoyl-RRKS[dV]P[Dab]PD; lactam 3-C), the pIC50 was 6.10 in assay [3], < 4.40 in assay [2], 5.96 in assay [4] and 6.24 in assay [5].
On to `CCCCCCCCCCCCCCCCCC(=O)N[C@@H](CCCNC(=N)N)C(=O)N[C@@H](CCCNC(=N)N)C(=O)N[C@H]1CCCCNC(=O)[C@H](CC(=O)O)NC(=O)[C@@H]2CCCN2C(=O)[C@H](CCN)NC(=O)[C@@H]2CCCN2C(=O)[C@@H](C(C)C)NC(=O)[C@H](CO)NC(=O)[C@H](Cc2c[nH]cn2)NC1=O` [pCAP-715, str-RRKHSvP(Dab)PD-Cyc] (Stearoyl-RRKHS[dV]P[Dab]PD; lactam 3-C), for which the pIC50 in assay [3] was 6.60; in assay [2], < 4.40; in assay [4], 6.27; in assay [5], 6.32.
For the molecule `CCCCCCCCCCCCCCCCCC(=O)N[C@@H](CCCNC(=N)N)C(=O)N[C@@H](CCCNC(=N)N)C(=O)N[C@@H](Cc1c[nH]cn1)C(=O)N[C@@H](CO)C(=O)N[C@@H](C(=O)N1CCC[C@H]1C(=O)N[C@@H](CCN)C(=O)N1CCC[C@H]1C(=O)N[C@@H](CC(=O)O)C(N)=O)C(C)C` [pCAP-718, str-RRHSvP(Dab)PD-NH2 ion ex] (Stearoyl-RRHS[dV]P[Dab]PD-NH2), the pIC50 was 5.66 in assay [7], 6.14 in assay [3], < 4.40 in assay [2] and 6.43 in assay [5].
The like results for `CCCCCCCCCCCCCCCCCC(=O)N[C@@H](CCCNC(=N)N)C(=O)N[C@@H](CCCNC(=N)N)C(=O)N[C@@H](Cc1c[nH]cn1)C(=O)N[C@@H](CO)C(=O)N[C@H](CCCCN)C(=O)N1Cc2ccccc2C[C@@H]1C(=O)N[C@@H](CCN)C(=O)N1CCC[C@H]1C(=O)N[C@@H](CC(=O)O)C(N)=O` [pCAP-719, str-RRHSk(tic)(Dab)PD-NH2] (Stearoyl-RRHS[dK][dTic][Dab]PD-NH2) were, in that order, 5.66, 6.24, 4.54 and 6.34.
With `CCCCCCCCCCCCCCCCCC(=O)N[C@@H](CCCNC(=N)N)C(=O)N[C@@H](CCCNC(=N)N)C(=O)N[C@@H](Cc1c[nH]cn1)C(=O)N[C@@H](CO)C(=O)N[C@@H](C(=O)N1CCC[C@@H]1C(=O)N[C@@H](CCN)C(=O)N1CCC[C@H]1C(=O)N[C@H](CC(=O)O)C(=O)NCC(=O)N[C@@H](CCCNC(=N)N)C(=O)O)C(C)C` [pCAP-721, str-RRHSvp(Dab)PdGR] (Stearoyl-RRHS[dV][dP][Dab]P[dD]GR-OH; C-terminus assumed), the pIC50 in assay [1] is 6.52; in assay [3] it was 6.10; in assay [4] it was 5.92; in assay [5], 6.52. Besides, in assay [6], the “activity in viability assays compared with other peptides (in words)” value is recorded as “comparable activity to pCAP-717”.
Consider `CCCCCCCCCCCCCCCCCC(=O)N[C@@H](CCCNC(=N)N)C(=O)N[C@@H](CC(=O)O)C(=O)N1CCC[C@H]1C(=O)N[C@@H](Cc1c[nH]cn1)C(=O)N[C@@H](C(=O)N[C@@H](CO)C(=O)N1CCC[C@H]1C(=O)N[C@@H](CCCNC(=N)N)C(=O)N[C@@H](CCN)C(N)=O)C(C)C` [pCAP-723, str-RDPHvSPR(Dab)-NH2, reference compound] (Stearoyl-RDPH[dV]SPR[Dab]-NH2), for which the pIC50 in assay [7], in assay [3], in assay [2] and in assay [5] was < 4.40 each time.
Turning to “pam-RRHSvP(Dab)PD-NH2 (Palmitoyl-RRHS[dV]P[Dab]PD-NH2) [pCAP-673, pam—Palmitic]”, the “increase in efficacy relative to pCAP-553” value in assay [5] is reported as “two-fold increase in efficacy”.
